Calls of active or inactive are those of the source. The rule behind the calls is not given here.
What was measured:
PANC-1 [1] = test: Downregulation of Bcl-2 level in human PANC-1 cells upto 5 uM incubated for 24 hrs by Western blot analysis; type: functional, cell-based
ASPC1 [2] = test: Cytotoxicity against human ASPC1 cells assessed as inhibition of cell proliferation at 0.94 to 30 uM by SRB assay; type: functional, cell-based; conditions: dose 0.94-30 µM, time 24-72 hrs, TDE = time-dependent effect
ASPC1 [3] = test: Induction of apoptosis in human ASPC1 cells assessed as late apoptotic cells at 1.25 uM incubated for 24 hrs by annexinV-FITC and PI staining based flow cytometry analysis (reference value: 2.18 %); type: functional
ASPC1 [4] = test: Cytotoxicity against human ASPC1 cells assessed as inhibition of cell growth incubated for 72 hrs by SRB assay; type: functional, cell-based; conditions: ASPC1, 72 h
PANC-1 [5] = test: Induction of apoptosis in human PANC-1 cells assessed as increase in cleaved caspase 9 level incubated for 24 hrs by Western blot analysis; type: functional, cell-based; conditions: dose 1.25-5 µM, DDE = dose-dependent effect
ASPC1 [6] = test: Induction of apoptosis in human ASPC1 cells assessed as late apoptotic cells at 2.50 uM incubated for 24 hrs by annexinV-FITC and PI staining based flow cytometry analysis (reference value: 2.18 %); type: functional; conditions: dose 2.5 µM
PANC-1 [7] = test: Induction of apoptosis in human PANC-1 cells assessed as late apototic cells at 5 uM incubated for 24 hrs by annexinV-FITC and PI staining based flow cytometry analysis (reference value: 5.71 %); type: functional
PANC-1 [8] = test: Induction of apoptosis in human PANC-1 cells assessed as increase in caspase 3 enzymatic activity upto 5 uM incubated for 24 hrs by Western blot analysis; type: functional, cell-based
ASPC1 [9] = test: Induction of apoptosis in human ASPC1 cells assessed as increase in cleaved caspase 3 level incubated for 24 hrs by Western blot analysis; type: functional, cell-based; conditions: dose 1.25-5 µM, DDE = dose-dependent effect
[10] = target: Epidermal growth factor receptor (Homo sapiens) (UniProt P00533); test: Inhibition of EGFR downstream signalling in human ASPC1 cells assessed as reduction of Akt phosphorylation upto 5 uM incubated for 24 hrs by Western blot analysis; type: cell-based
Chain of Epidermal growth factor receptor (Homo sapiens) (P00533 whole entry): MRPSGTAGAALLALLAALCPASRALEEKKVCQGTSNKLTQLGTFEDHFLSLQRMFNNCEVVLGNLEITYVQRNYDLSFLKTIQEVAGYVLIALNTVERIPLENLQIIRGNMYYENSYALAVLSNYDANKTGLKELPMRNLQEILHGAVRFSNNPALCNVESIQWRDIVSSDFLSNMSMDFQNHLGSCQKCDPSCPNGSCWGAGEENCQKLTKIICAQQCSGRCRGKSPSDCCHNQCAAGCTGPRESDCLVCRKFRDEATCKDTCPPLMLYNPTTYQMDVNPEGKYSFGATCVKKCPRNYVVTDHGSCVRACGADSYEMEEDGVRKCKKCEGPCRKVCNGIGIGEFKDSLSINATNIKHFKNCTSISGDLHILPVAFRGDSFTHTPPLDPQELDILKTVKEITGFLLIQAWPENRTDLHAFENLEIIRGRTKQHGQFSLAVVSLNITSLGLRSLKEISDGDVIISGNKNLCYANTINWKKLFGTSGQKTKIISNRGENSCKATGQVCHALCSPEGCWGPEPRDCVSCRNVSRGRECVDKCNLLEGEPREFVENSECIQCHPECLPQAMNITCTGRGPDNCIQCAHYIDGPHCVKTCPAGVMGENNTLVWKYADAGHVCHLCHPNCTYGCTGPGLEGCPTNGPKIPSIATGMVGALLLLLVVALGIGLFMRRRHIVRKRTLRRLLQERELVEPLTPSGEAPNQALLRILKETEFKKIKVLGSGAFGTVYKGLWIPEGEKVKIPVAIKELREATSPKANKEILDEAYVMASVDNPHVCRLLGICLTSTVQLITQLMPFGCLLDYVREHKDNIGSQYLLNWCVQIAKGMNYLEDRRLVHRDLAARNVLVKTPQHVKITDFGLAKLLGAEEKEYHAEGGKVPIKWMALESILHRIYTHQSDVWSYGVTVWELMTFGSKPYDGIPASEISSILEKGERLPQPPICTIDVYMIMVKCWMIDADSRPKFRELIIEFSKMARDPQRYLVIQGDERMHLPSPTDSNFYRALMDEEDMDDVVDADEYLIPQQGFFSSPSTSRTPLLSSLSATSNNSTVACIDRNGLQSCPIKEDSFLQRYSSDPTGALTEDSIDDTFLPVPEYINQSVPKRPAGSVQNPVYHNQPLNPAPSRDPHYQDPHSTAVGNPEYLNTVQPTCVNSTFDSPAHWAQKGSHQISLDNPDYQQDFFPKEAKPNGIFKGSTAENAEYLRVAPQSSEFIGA

ASPC1 [11] = test: Induction of apoptosis in human ASPC1 cells assessed as early apoptotic cells at 5 uM incubated for 24 hrs by annexinV-FITC and PI staining based flow cytometry analysis (reference value: 1.56 %); type: functional
ASPC1 [12] = test: Induction of apoptosis in human ASPC1 cells assessed as necrotic cells at 5 uM incubated for 24 hrs by annexinV-FITC and PI staining based flow cytometry analysis (reference value: 0.27 %); type: functional
ASPC1 [13] = test: Induction of apoptosis in human ASPC1 cells assessed as necrotic cells at 1.25 uM incubated for 24 hrs by annexinV-FITC and PI staining based flow cytometry analysis (reference value: 0.27 %); type: functional
ASPC1 [14] = test: Upregulation of cleaved caspase 3 expression in human ASPC1 cells incubated for 24 hrs in presence of gemcitabine by Western blot analysis; type: functional, cell-based
ASPC1 [15] = test: Induction of apoptosis in human ASPC1 cells assessed as viable cells at 1.25 uM incubated for 24 hrs by annexinV-FITC and PI staining based flow cytometry analysis (reference value: 96.0 %); type: functional; conditions: read-out: Activity
ASPC1 [16] = test: Induction of apoptosis in human ASPC1 cells assessed as early apoptotic cells at 1.25 uM incubated for 24 hrs by annexinV-FITC and PI staining based flow cytometry analysis (reference value: 1.56 %); type: functional
[17] = target: Epidermal growth factor receptor (Homo sapiens) (UniProt P00533); test: Inhibition of EGFR expression in human ASPC1 cells upto 5 uM incubated for 24 hrs by Western blot analysis; type: cell-based
[18] = target: Epidermal growth factor receptor (Homo sapiens) (UniProt P00533); test: Inhibition of EGFR downstream signalling in human PANC-1 cells assessed as reduction of STAT3 phosphorylation upto 5 uM incubated for 24 hrs by Western blot analysis; type: cell-based
ASPC1 [19] = test: Downregulation of Bcl-2 level in human ASPC1 cells upto 5 uM incubated for 24 hrs by Western blot analysis; type: functional, cell-based
PANC-1 [20] = test: Upregulation of cleaved caspase 3 expression in human PANC-1 cells incubated for 24 hrs in presence of gemcitabine by Western blot analysis; type: functional, cell-based
ASPC1 [21] = test: Cytotoxicity against human ASPC1 cells assessed as inhibition of cell proliferation incubated for 24 to 72 hrs by SRB assay; type: functional, cell-based; conditions: dose 0.94-30 µM, time 24-72 hrs, DDE = dose-dependent effect
[22] = target: Epidermal growth factor receptor (Homo sapiens) (UniProt P00533); test: Inhibition of EGFR expression in human PANC-1 cells upto 5 uM incubated for 24 hrs by Western blot analysis; type: cell-based
ASPC1 [23] = test: Induction of apoptosis in human ASPC1 cells assessed as suppression of XIAP expression at upto 5 uM incubated for 24 hrs by Western blot analysis; type: functional, cell-based
ASPC1 [24] = test: Induction of apoptosis in human ASPC1 cells assessed as increase in cleaved caspase 9 level incubated for 24 hrs by Western blot analysis; type: functional, cell-based; conditions: dose 1.25-5 µM, DDE = dose-dependent effect
PANC-1 [25] = test: Induction of apoptosis in human PANC-1 cells assessed as necrotic cells at 1.25 uM incubated for 24 hrs by annexinV-FITC and PI staining based flow cytometry analysis (reference value: 0.14 %); type: functional
ASPC1 [26] = test: Induction of apoptosis in human ASPC1 cells assessed as early apoptotic cells at 2.50 uM incubated for 24 hrs by annexinV-FITC and PI staining based flow cytometry analysis (reference value: 1.56 %); type: functional; conditions: dose 2.5 µM
ASPC1 [27] = test: Induction of apoptosis in human ASPC1 cells assessed as necrotic cells at 2.50 uM incubated for 24 hrs by annexinV-FITC and PI staining based flow cytometry analysis (reference value: 0.27 %); type: functional; conditions: dose 2.5 µM
[28] = target: Epidermal growth factor receptor (Homo sapiens) (UniProt P00533); test: Inhibition of EGFR downstream signalling in human PANC-1 cells assessed as reduction of Akt phosphorylation upto 5 uM incubated for 24 hrs by Western blot analysis; type: cell-based
ASPC1 [29] = test: Induction of apoptosis in human ASPC1 cells assessed as late apoptotic cells at 5 uM incubated for 24 hrs by annexinV-FITC and PI staining based flow cytometry analysis (reference value: 2.18 %); type: functional
ASPC1 [30] = test: Antiinvasive activity in human ASPC1 cells assessed as decrease in cell invasion at 0.94 to 3.75 uM incubated for 24 hrs by crystal violet staining based transwell assay; type: functional; conditions: dose 0.94-3.75 µM
PANC-1 [31] = test: Upregulation of PARP expression in human PANC-1 cells incubated for 24 hrs in presence of gemcitabine by Western blot analysis; type: functional, cell-based

With `COC(=O)CCCCCCC/C=C/C(=O)OC[C@@]1(C)CCC[C@@]2(C)[C@H]1[C@H](OC(=O)c1ccc([N+](=O)[O-])cc1)C=C1C(=O)OC[C@@]12O` the Activity (PANC-1 [1]) was “Active”, the Activity (ASPC1 [2]) was “Tde” and the Activity (ASPC1 [3]) was 3.96%. For the same molecule, the IC50 (ASPC1 [4]) was 2.3 µM, the Activity (PANC-1 [5]) was “Dde” and the Activity (ASPC1 [6]) was 4.92%. The Activity (PANC-1 [7]) was 23.1%, the Activity (PANC-1 [8]) was “Active” and the Activity (ASPC1 [9]) was “Dde”. The inhibition [10] was “Active”, the Activity (ASPC1 [11]) was 2.98% and the Activity (ASPC1 [12]) was 1.79%. The Activity (ASPC1 [13]) was 0.2%, the Activity (ASPC1 [14]) was “Active” and the viability at 1.25 µM (ASPC1 [15]) was 90.1%. For the same molecule, the Activity (ASPC1 [16]) was 5.77%, the inhibition [17] was “Active” and the inhibition [18] was “Active”. The Activity (ASPC1 [19]) was “Active”, the Activity (PANC-1 [20]) was “Active” and the Activity (ASPC1 [21]) was “Dde”. The inhibition [22] was “Active”, the Activity (ASPC1 [23]) was “Active” and the Activity (ASPC1 [24]) was “Dde”. For the same molecule, the Activity (PANC-1 [25]) was 0.22%, the Activity (ASPC1 [26]) was 7.03% and the Activity (ASPC1 [27]) was 0.38%. The inhibition [28] was “Active”, the Activity (ASPC1 [29]) was 10.1% and the Activity (ASPC1 [30]) was “Active”. For the same molecule, the Activity (PANC-1 [31]) was “Active”.

Source: ChEMBL document CHEMBL5120812, “Cytotoxic Nitrobenzoyl Sesquiterpenoids from an Antarctica Sponge-Derived Aspergillus insulicola” (J Nat Prod, 2022)
